Measurements: ChEMBL document CHEMBL4229536, “In vitro and in vivo pharmacokinetic and pharmacodynamic study of MBRI-001, a deuterium-substituted plinabulin derivative as a potent anti-cancer agent” (Bioorg Med Chem, 2018)

Tests used:
[1] = Apparent volume of distribution in Wistar rat at 8 mg/kg, iv; type: ADME, organism-based; settings: in vivo, read-out: Vz
Cytochrome P450 1A2 = molecular target: T1, Cytochrome P450 1A2 (Homo sapiens, UniProt P05177); assay: Inhibition of CYP1A2 in human liver microsomes preincubated for 10 mins followed by NADPH addition measured after 10 mins by LC-MS/MS analysis; type: ADME
T1 sequence (P05177 whole entry): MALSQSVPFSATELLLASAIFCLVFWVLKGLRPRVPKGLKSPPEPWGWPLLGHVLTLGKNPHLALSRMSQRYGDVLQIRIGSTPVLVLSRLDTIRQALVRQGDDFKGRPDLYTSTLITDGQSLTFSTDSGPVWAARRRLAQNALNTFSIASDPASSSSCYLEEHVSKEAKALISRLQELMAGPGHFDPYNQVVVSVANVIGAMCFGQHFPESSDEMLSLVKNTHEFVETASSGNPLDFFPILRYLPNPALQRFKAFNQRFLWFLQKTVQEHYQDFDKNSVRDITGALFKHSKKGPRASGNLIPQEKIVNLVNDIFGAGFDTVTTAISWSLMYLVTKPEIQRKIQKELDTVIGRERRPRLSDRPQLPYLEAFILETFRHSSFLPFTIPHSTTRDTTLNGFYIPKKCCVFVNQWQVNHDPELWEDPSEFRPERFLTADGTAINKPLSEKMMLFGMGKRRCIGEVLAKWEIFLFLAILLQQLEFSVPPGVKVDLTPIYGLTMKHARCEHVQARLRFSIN

[2] = Drug uptake in Wistar rat spleen at 6 mg/kg, iv measured after 12 hrs; type: ADME, organism-based; settings: in vivo
[3] = Drug uptake in Wistar rat brain at 6 mg/kg, iv measured after 1 hr; type: ADME, organism-based; settings: in vivo
[4] = Drug uptake in Wistar rat heart at 6 mg/kg, iv measured after 8 hrs; type: ADME, organism-based; settings: in vivo
[5] = Drug uptake in Wistar rat heart at 6 mg/kg, iv measured after 4 hrs; type: ADME, organism-based; settings: in vivo
NCI-H460 [6] = assay: Antitumor activity against human NCI-H460 cells xenografted in nude mouse assessed as inhibition of tumor weight at 6 mg/kg, iv administered once in every 2 days for 14 consecutive days relative to control; type: functional; settings: 48 h
[7] = Drug uptake in Wistar rat small intestine at 6 mg/kg, iv measured after 4 hrs; type: ADME, organism-based; settings: in vivo
[8] = Stability in rat plasma at 1 uM after 10 mins by LC-MS/MS analysis; type: ADME, cell-free; settings: read-out: Stability
[9] = AUClast in Wistar rat at 4 mg/kg, iv; type: ADME, organism-based; design: dose 4 mg/kg, route intravenous, time 0 - last; settings: in vivo
[10] = Drug uptake in Wistar rat large intestine at 6 mg/kg, iv measured after 1 hr; type: ADME, organism-based; settings: in vivo
[11] = Clearance in rat liver microsomes at 50 uM in presence of NADPH by LC-MS/MS analysis; type: ADME, microsome; settings: read-out: CLH
[12] = Drug excretion in Wistar rat urine at 4 mg/kg, iv measured after 0.5 hrs; type: ADME, organism-based; settings: read-out: Drug excretion
[13] = Stability in rat plasma at 1 uM after 120 mins by LC-MS/MS analysis; type: ADME, cell-free; settings: read-out: Stability
NCI-H460 [14] = assay: Antitumor activity against human NCI-H460 cells xenografted in nude mouse assessed as inhibition of tumor weight at 6 mg/kg, iv administered once in every 2 days for 14 consecutive days cotreated with 50 mg/kg gefitinib once daily for 14 consecutive days relative to control; type: functional
[15] = Drug uptake in Wistar rat lungs at 6 mg/kg, iv measured after 0.5 hrs; type: ADME, organism-based, Lung; settings: in vivo
[16] = Stability in rat plasma at 1 uM after 20 mins by LC-MS/MS analysis; type: ADME, cell-free; settings: read-out: Stability
[17] = Half life in Wistar rat at 8 mg/kg, iv; type: ADME, organism-based; settings: in vivo
[18] = Drug excretion in Wistar rat urine at 4 mg/kg, iv measured after 72 hrs; type: ADME, organism-based; settings: read-out: Drug excretion
NCI-H460 [19] = assay: Antitumor activity against human NCI-H460 cells xenografted in nude mouse assessed as inhibition of tumor volume at 3 mg/kg, iv administered once in every 2 days for 14 consecutive days cotreated with 25 mg/kg gefitinib once daily for 14 consecutive days relative to control; type: functional
Mus musculus [20] = assay: Toxicity in nude mouse xenografted with human NCI-H460 cells assessed as body weight at 6 mg/kg, iv administered once in every 2 days for 14 consecutive days cotreated with 50 mg/kg gefitinib once daily for 14 consecutive days (reference value: 20.6 +/- 1.5 g); type: organism-based; settings: in vivo, 48 h
[21] = Drug excretion in Wistar rat feces at 4 mg/kg, iv measured after 72 hrs; type: ADME, organism-based; settings: faeces, read-out: Drug excretion
[22] = Cmax in Wistar rat at 4 mg/kg, iv; type: ADME, organism-based; design: dose 4 mg/kg, route intravenous; settings: in vivo
[23] = Drug excretion in Wistar rat urine at 4 mg/kg, iv measured after 24 hrs; type: ADME, organism-based; settings: read-out: Drug excretion
Cytochrome P450 2C9 = Cytochrome P450 2C9 (Homo sapiens, UniProt P11712); assay: Inhibition of CYP2C9 in human liver microsomes preincubated for 10 mins followed by NADPH addition measured after 10 mins by LC-MS/MS analysis; type: ADME
[24] = AUClast in Wistar rat at 8 mg/kg, iv; type: ADME, organism-based; design: dose 8 mg/kg, time 0 - last, route intravenous; settings: in vivo
[25] = Drug excretion in Wistar rat feces at 4 mg/kg, iv measured after 2 hrs; type: ADME, organism-based; settings: faeces, read-out: Drug excretion
[26] = Drug excretion in Wistar rat urine at 4 mg/kg, iv measured after 4 hrs; type: ADME, organism-based; settings: read-out: Drug excretion
[27] = Apparent volume of distribution in Wistar rat at 4 mg/kg, iv; type: ADME, organism-based; settings: in vivo, read-out: Vz
[28] = Drug excretion in Wistar rat feces at 4 mg/kg, iv measured after 48 hrs; type: ADME, organism-based; settings: faeces, read-out: Drug excretion
[29] = Drug uptake in Wistar rat spleen at 6 mg/kg, iv measured after 1 hr; type: ADME, organism-based; settings: in vivo
[30] = Drug uptake in Wistar rat large intestine at 6 mg/kg, iv measured after 12 hrs; type: ADME, organism-based; settings: in vivo
[31] = Toxicity in Balb/c mouse administered iv three times in a day every 2 days for 15 consecutive days; type: organism-based; settings: in vivo
[32] = Drug uptake in Wistar rat kidney at 6 mg/kg, iv measured after 0.5 hrs; type: ADME, organism-based; settings: in vivo
[33] = Stability in rat liver microsomes at 50 uM after 150 mins in presence of NADPH by LC-MS/MS analysis; type: ADME, microsome; settings: read-out: Stability
[34] = Drug uptake in Wistar rat small intestine at 6 mg/kg, iv measured after 1 hr; type: ADME, organism-based; settings: in vivo
[35] = Protein binding in Beagle dog plasma at 2 uM after 4 hrs by LC-MS/MS analysis; type: ADME, cell-free, Canis lupus familiaris; settings: read-out: PPB (converted)
[36] = Stability in rat plasma at 1 uM after 40 mins by LC-MS/MS analysis; type: ADME, cell-free; settings: read-out: Stability
[37] = Stability in rat liver microsomes at 50 uM after 90 mins in presence of NADPH by LC-MS/MS analysis; type: ADME, microsome; settings: read-out: Stability
Mus musculus [38] = assay: Toxicity in nude mouse xenografted with human NCI-H460 cells assessed as body weight at 3 mg/kg, iv administered once in every 2 days for 14 consecutive days (reference value: 20.6 +/- 1.5 g); type: organism-based; settings: in vivo, 48 h
[39] = Drug uptake in Wistar rat pancreas at 6 mg/kg, iv measured after 8 hrs; type: ADME, organism-based; settings: in vivo
[40] = MRTlast in Wistar rat at 8 mg/kg, iv; type: ADME, organism-based; settings: in vivo
[41] = Drug uptake in Wistar rat large intestine at 6 mg/kg, iv measured after 4 hrs; type: ADME, organism-based; settings: in vivo
[42] = Drug uptake in Wistar rat spleen at 6 mg/kg, iv measured after 8 hrs; type: ADME, organism-based; settings: in vivo

Sequence of Cytochrome P450 2C9 (P11712 whole entry): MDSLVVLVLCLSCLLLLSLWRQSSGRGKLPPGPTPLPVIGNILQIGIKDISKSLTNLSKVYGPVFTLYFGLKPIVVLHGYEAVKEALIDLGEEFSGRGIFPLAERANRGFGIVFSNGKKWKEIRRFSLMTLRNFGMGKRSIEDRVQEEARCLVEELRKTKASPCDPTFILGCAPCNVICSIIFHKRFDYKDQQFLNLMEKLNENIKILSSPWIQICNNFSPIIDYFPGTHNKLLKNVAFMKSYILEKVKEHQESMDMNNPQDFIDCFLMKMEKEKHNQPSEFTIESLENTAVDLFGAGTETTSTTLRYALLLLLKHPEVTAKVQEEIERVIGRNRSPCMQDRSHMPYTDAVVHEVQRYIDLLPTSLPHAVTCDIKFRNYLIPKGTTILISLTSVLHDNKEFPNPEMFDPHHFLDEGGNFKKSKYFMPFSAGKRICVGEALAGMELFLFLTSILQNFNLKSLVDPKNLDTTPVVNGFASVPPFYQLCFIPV

[2H]/C(c1nc[nH]c1C(C)(C)C)=c1/[nH]c(=O)/c(=C/c2ccccc2)[nH]c1=O
Vd [1]: 16.2 L/kg
IC50 (Cytochrome P450 1A2): 1020 nM
Drug uptake [2]: 287.3 ng/mL/g
Drug uptake [3]: 561 ng/mL/g
Drug uptake [4]: 88 ng/mL/g
Drug uptake [5]: 567.3 ng/mL/g
inhibition in vivo at 6 mg/kg (NCI-H460 [6]): 49.5%
Drug uptake [7]: 336.9 ng/mL/g
remaining at 10 min, 1 µM [8]: 96.8%
AUC(0-t) [9]: 1330 ng·h/mL
Drug uptake [10]: 1421.7 ng/mL/g
microsomal CLint at 50 µM [11]: 16.3 µL/min/mg
dose excreted at 0.5 h [12]: 0.02%
remaining at 2 h, 1 µM [13]: 101%
inhibition (INH) (NCI-H460 [14]): 60.5%
Drug uptake [15]: 13471.1 ng/mL/g
remaining at 20 min, 1 µM [16]: 95.8%
half-life [17]: 2.29 h
dose excreted at 72 h [18]: 0.5%
inhibition (INH) (NCI-H460 [19]): 57.6%
Activity (Mus musculus [20]): 18.5 g
dose excreted at 72 h [21]: 6.23%
Cmax [22]: 4420 ng/mL
dose excreted at 24 h [23]: 0.2%
IC50 (Cytochrome P450 2C9): 560 nM
AUC(0-t) [24]: 5780 ng·h/mL
dose excreted at 2 h [25]: 0%
dose excreted at 4 h [26]: 0.27%
Vd [27]: 16.4 L/kg
dose excreted at 48 h [28]: 6.1%
Drug uptake [29]: 7146.9 ng/mL/g
Drug uptake [30]: 381 ng/mL/g
MTD at 48 h [31]: 15 mg/kg
Drug uptake [32]: 7423.8 ng/mL/g
remaining at 2.5 h, 50 µM [33]: 32.9%
Drug uptake [34]: 1128.6 ng/mL/g
fraction unbound at 4 h, 2 µM [35]: 0.027
remaining at 40 min, 1 µM [36]: 95.5%
remaining at 1.5 h, 50 µM [37]: 39.9%
Activity (Mus musculus [38]): 20.5 g
Drug uptake [39]: 399 ng/mL/g
MRT last [40]: 0.96 h
Drug uptake [41]: 359 ng/mL/g
Drug uptake [42]: 773.1 ng/mL/g
